This is an account of results in patent US11207312B2, “Metallo-beta-lactamase inhibitors and methods of use thereof” (priority 2017, dated 2021).

Series [1] deals with NDM-1 (Klebsiella pneumoniae, UniProt C7C422). Briefly: biochemical. The format is biochemical. Conditions: CCF2-FA fluorescence assay, 2 hours at 25° C. The procedure:
(§1) The Class B enzyme activities were measured in the presence of the test inhibitor in a fluorescence assay against a commercially available substrate consisting of a cephalosporin core linking 7-hydroxycoumarin to fluorescein (CCF2-FA). The enzyme (NDM-1, IMP-1 or VIM-1) and the substrate were diluted in 100 mM KH2PO4 buffer (pH 7) containing 0.005% Tween-20 and 10 μM ZnSO4. In the assay, the final concentration of enzyme was 1 pM, 2 pM and 30 pM for NDM-1, IMP-1 and VIM-1, respectively, and the final concentration of CCF2-FA was 1.25 μM. The test inhibitor was dissolved in dimethylsulfoxide and diluted 1:50 in the assay, resulting in a final concentration range of 20 μM to 0.00063 μM. In a 384-well microplate, the test inhibitor was incubated with the metallo-β-lactamase enzyme and the substrate for 2 hours at 25° C. Fluorescence at 460 nm following excitation at 405 nm was measured. The IC50 value was determined from semi-logarithmic plots of enzyme inhibition versus inhibitor concentration, with a curve generated using a 4-parameter fit.

Series [2] addresses IMP-1 (Serratia marcescens, UniProt P52699). Briefly: biochemical. The following applies: CCF2-FA fluorescence assay, 2 hours at 25° C.; read-out: IMP1 IC50. The procedure: as §1
Series [3] concerns the target VIM-1 (Pseudomonas aeruginosa (strain ATCC 15692 / DSM 22644 / CIP 104116 / JCM 14847 / LMG 12228 / 1C / PRS 101 / PAO1), UniProt A0A0F7KYQ8). Briefly: biochemical. The following applies: CCF2-FA fluorescence assay, 2 hours at 25° C.; read-out: VIM1 IC50. Here is the method: as §1
For series [4], the target named is VIM-2 (Escherichia coli, UniProt Q5U7L7). The series can be described thus: biochemical.
In series [5] the test system is Escherichia coli expressing NDM-1 (CLB30016). Format: cell-based. The following applies: with imipenem 1 μg/ml; 95% inhibition of bacterial growth. Here is the method: (§2) The bacterial strains tested included the clinical strains Escherichia coil expressing NDM-1 (CLB30005, CLB30016), Serratia marcescens expressing IMP-1 (CL5741), and Klebsiella pneumoniae expressing VIM-1 (H-LMA599644). Inhibitor activity was measured in the presence and absence of imipenem in a 384-well microplate.
(§3) The clinical strains CLB30016, CL5741 and IHMA599644 were grown on trypticase soy agar containing 5% sheep's blood. The bacteria on agar plates were incubated at 35° C. with humidity overnight. The following day, individual colonies from each clinical strain were picked and resuspended in 5 ml saline to attain an OD600 of […], for CLB30016, C15741 and IHMA599644, respectively. These were further diluted 1:100 into 1.1× CAMHB and used to inoculate the test wells as described below.
(§4) Imipenem in 10 mM 3-(N-morpholino)propanesulfonic acid (MOPS, pH 7) was stored in single use aliquots at −80° C. […] On the day of the assay, 4 μl of antibiotic was added to 45 μl of bacteria followed by 1 μl of test compound and mixed by pipetting and with an orbital shaker. The concentration of antibiotic used in the assay was 1 μg/ml. Microplates were covered and incubated at 35° C. for 22 hours to 24 hours. At the end of the incubation, absorbance was determined using a spectrophotometer. The synergistic concentration of MBLI was determined by identifying the lowest concentration of test compound in the presence of a given concentration of antibiotic that was required to inhibit 95% of the growth of the bacteria. The results for Examples 1-209 are reported in Table 1, expressed as the concentration of compound that potentiated the action of antibiotic (imipenem) affecting 95% inhibition of bacterial growth (MITC95).

In series [6] the test system is Klebsiella pneumoniae expressing VIM-1 (IHMA599644). The format is cell-based. The following applies: with imipenem 1 μg/ml; 95% inhibition of bacterial growth. The procedure:
as §2, §3, §4

Series [7] relates to Serratia marcescens expressing IMP-1 (CL5741). Format: cell-based. The following applies: with imipenem 1 μg/ml; 95% inhibition of bacterial growth. The procedure:
as §2, §3, §4

The test system of series [8] is P. aeruginosa MB9798 (efflux+, IMP-1 plasmid). The following applies: for MB9798 MITC95 P. aeruginosa uM Efflux WT: efflux + (MB9798) strain, imipenem at 2 μg/mL, in the presence of a class A, C, D serine β-lactamase inhibitor closely related to relebactam; for Efflux ratio: fold difference between efflux+ (MB9798) and efflux− (MB9799) strains. From the text:
(§5) The strain background is Pseudomonas aeruginosa PAO1. A wild-type (M135919) and an isogenic strain in which multiple efflux pumps have been disrupted genetically were used. The MBL IMP-1, obtained from a clinical isolate was introduced into the strain pair by the following process:
(§6) The plasmid DNA was transformed into parental MB5919 (oprD+, efflux+, inducible AmpC) and MB5890 (oprD+, efflux−, inducible AmpC) isogenic strains by electroporation.
(§7) The strain set was then used as a pair to determine the effect of metallo-β-lactamase inhibitors of Formula I on the MIC of imipenem and/or ceftazidime. A fixed concentration of antibiotic is included in standard microbroth MIC tests, usually at the CLSI breakpoint concentration, A fixed amount of a class A/C beta-lactamase inhibitor is also included to inhibit the resident Pseudomonas AmpC enzyme. A serial titration of the metallo-β-lactamase inhibitor was included and the concentration of metallo-β-lactamase inhibitor which restores susceptibility of the strain to the included antibiotic was recorded. That concentration of metallo-β-lactamase inhibitor was then compared between the two strains to determine the fold difference between the efflux+(MB9798) and efflux−(MI39799) strains, which indicates the extent to which the MBLi is subject to efflux.

The subject of series [9] is P. aeruginosa MB9799 (efflux-, IMP-1 plasmid). The format is cell-based, Pseudomonas aeruginosa. Conditions: efflux − (MB9799) strain; imipenem at 2 μg/mL; in the presence of a class A, C, D serine β-lactamase inhibitor closely related to relebactam.
From the text: as §5, §6, §7

The mark [10] stands for this setting: CCF2-FA fluorescence assay, read-out: VIM2 IC50.

Like-named read-outs stand apart in the source and are kept apart here.

Chain of NDM-1 (C7C422 whole entry, looked up, species assumed): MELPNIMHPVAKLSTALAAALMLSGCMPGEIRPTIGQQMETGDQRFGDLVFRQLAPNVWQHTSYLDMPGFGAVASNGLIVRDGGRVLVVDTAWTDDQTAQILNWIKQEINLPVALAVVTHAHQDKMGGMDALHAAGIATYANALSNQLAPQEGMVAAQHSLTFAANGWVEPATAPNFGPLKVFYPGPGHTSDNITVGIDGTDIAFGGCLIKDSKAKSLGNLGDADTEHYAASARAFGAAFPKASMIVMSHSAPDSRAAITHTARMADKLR
Chain of IMP-1 (P52699 whole entry, looked up, species assumed): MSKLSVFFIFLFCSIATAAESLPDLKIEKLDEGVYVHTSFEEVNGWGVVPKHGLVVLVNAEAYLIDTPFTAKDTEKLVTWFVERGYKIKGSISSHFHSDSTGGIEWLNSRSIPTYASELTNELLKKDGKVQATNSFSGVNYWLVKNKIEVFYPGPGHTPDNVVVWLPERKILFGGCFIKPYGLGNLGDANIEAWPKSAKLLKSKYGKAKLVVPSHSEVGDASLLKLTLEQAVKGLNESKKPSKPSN

For orientation: IC50 means the midpoint of a concentration-inhibition curve. For `NC[C@@H](O)CNS(=O)(=O)c1ccc(N2CCC(C(N)CO)CC2)c(-c2nn[nH]n2)c1S(N)(=O)=O` (single isomer, unassigned) [Example 180], the IC50 in series [1] stood at 5.73 nM; in [2], 6.3 nM; in series [3], 0.44 nM; in series [4] (VIM2 IC50, CCF2-FA fluorescence assay), 5.92 nM. In addition, the “CLB30016 E. coli MITC95 NDM” value in series [5] was 0.39 µM. For the same compound, the “IHMA599644 K. pneumoniae MITC95 VIM” value in series [6] stood at 1.56 µM. For the same compound, the “CL5741 S. marcescens MITC95 IMP” value in series [7] turned out to be 0.78 µM. Besides, in [8], the “MB9798 MITC95 P. aeruginosa uM Efflux WT” value was found to be 0.78 µM. Besides, in series [8], the Efflux ratio was 1.00. In series [9], the “MB9799 MITC95 P. aeruginosa uM Efflux Mutant” value was found to be 0.78 µM.

As to `NC[C@@H](O)CNS(=O)(=O)c1ccc(N2CCC(C(N)CO)CC2)c(-c2nn[nH]n2)c1S(N)(=O)=O` (single isomer, unassigned) [Example 181], the IC50 in series [1] amounted to 4.62 nM; in [2] it was 5.78 nM; in [3] it was 0.22 nM; in series [4] (setting [10]), 5.87 nM. In addition, the “CLB30016 E. coli MITC95 NDM” value in series [5] worked out at 0.39 µM. For the same compound, in series [6], the “IHMA599644 K. pneumoniae MITC95 VIM” value was found to be 1.56 µM. Also, the “CL5741 S. marcescens MITC95 IMP” value in series [7] is 0.39 µM. Also, the “MB9798 MITC95 P. aeruginosa uM Efflux WT” value in [8] amounted to 0.78 µM. Further, the Efflux ratio in series [8] amounted to 1.00. Moreover, in series [9], the “MB9799 MITC95 P. aeruginosa uM Efflux Mutant” value is 0.78 µM.

For `NCC=C1CCCN(c2ccc(S(=O)(=O)NC[C@H](O)CN)c(S(N)(=O)=O)c2-c2nn[nH]n2)C1` (single isomer, unassigned; isomer a) [Example 205], the half-maximal inhibitory concentration (IC50) in series [1] is 7.59 nM; in series [2], 19.7 nM; in series [3], 0.34 nM; in series [4] (setting [10]), 1.07 nM. Moreover, in series [5], the “CLB30016 E. coli MITC95 NDM” value worked out at 0.78 µM. Moreover, the “IHMA599644 K. pneumoniae MITC95 VIM” value in series [6] is 1.56 µM. For the same compound, in series [7], the “CL5741 S. marcescens MITC95 IMP” value turned out to be 1.56 µM. The “MB9798 MITC95 P. aeruginosa uM Efflux WT” value in series [8] turned out to be 12.50 µM. Besides, the Efflux ratio in series [8] amounted to 8.00. The “MB9799 MITC95 P. aeruginosa uM Efflux Mutant” value in [9] is 1.56 µM.

With `NC/C=C1\CCCN(c2ccc(S(=O)(=O)NC[C@H](O)CN)c(S(N)(=O)=O)c2-c2nn[nH]n2)C1` (single isomer, unassigned; isomer b) [Example 206], the half-inhibitory concentration (IC50) in series [1] turned out to be 9.21 nM; in series [2], 15.1 nM; in series [3], 0.23 nM; in series [4] (setting [10]) it was 1.52 nM. Moreover, the “CLB30016 E. coli MITC95 NDM” value in [5] is 0.78 µM. Also, the “IHMA599644 K. pneumoniae MITC95 VIM” value in series [6] amounted to 1.56 µM. In series [7], the “CL5741 S. marcescens MITC95 IMP” value came out at 1.56 µM. In series [8], the “MB9798 MITC95 P. aeruginosa uM Efflux WT” value worked out at 6.25 µM. Besides, in series [8], the Efflux ratio was 4.00. In addition, in [9], the “MB9799 MITC95 P. aeruginosa uM Efflux Mutant” value amounted to 1.56 µM.

Turning to `NC[C@@H](O)CNS(=O)(=O)c1ccc(N2CC[C@H](CN)[C@@H](F)C2)c(-c2nn[nH]n2)c1S(N)(=O)=O` (stereo in doubt) [Example 13, N^1—((R)-3-amino-2-hydroxypropyl)-4-(trans-4-(aminomethyl)-3-fluoropiperidin-1-yl)-3-(2H-tetrazol-5-yl)benzene-1,2-disulfonamide], the IC50 in series [1] turned out to be 3.01 nM; in series [2], 3.7 nM; in series [3], 0.14 nM; in [4] (setting [10]), 4.12 nM. Further, the “CLB30016 E. coli MITC95 NDM” value in series [5] worked out at 1.56 µM. Besides, in series [6], the “IHMA599644 K. pneumoniae MITC95 VIM” value amounted to 0.78 µM. For the same compound, in [7], the “CL5741 S. marcescens MITC95 IMP” value is 0.78 µM. Moreover, the “MB9798 MITC95 P. aeruginosa uM Efflux WT” value in [8] stood at 0.78 µM. In addition, the Efflux ratio in [8] worked out at 2.00. Also, the “MB9799 MITC95 P. aeruginosa uM Efflux Mutant” value in series [9] is 0.39 µM.

As to `NC[C@@H](O)CNS(=O)(=O)c1ccc(N2CC[C@@H](N)[C@H](F)C2)c(-c2nn[nH]n2)c1S(N)(=O)=O` [Example 2], the concentration for half-maximal inhibition (IC50) in series [1] was determined as 6.51 nM; in series [2], 3.37 nM; in [3], 0.17 nM; in [4] (setting [10]), 4.04 nM. Besides, the “CLB30016 E. coli MITC95 NDM” value in [5] came out at 0.20 µM. Also, in series [6], the “IHMA599644 K. pneumoniae MITC95 VIM” value was found to be 0.78 µM. Also, the “CL5741 S. marcescens MITC95 IMP” value in series [7] came out at 0.78 µM. The “MB9798 MITC95 P. aeruginosa uM Efflux WT” value in [8] stood at 0.78 µM. Further, in [8], the Efflux ratio was found to be 1.00. Further, the “MB9799 MITC95 P. aeruginosa uM Efflux Mutant” value in series [9] was 0.78 µM.

As to `NC[C@@H](O)CNS(=O)(=O)c1ccc(N2CCC(F)(CN)CC2)c(-c2nn[nH]n2)c1S(N)(=O)=O` [Example 3], the concentration for half-maximal inhibition (IC50) in series [1] came out at 2.43 nM; in series [2], 3.95 nM; in series [3] it was 0.61 nM; in [4] (setting [10]) it was 3.68 nM. Moreover, in [5], the “CLB30016 E. coli MITC95 NDM” value came to 0.78 µM. The “IHMA599644 K. pneumoniae MITC95 VIM” value in series [6] came out at 0.78 µM. The “CL5741 S. marcescens MITC95 IMP” value in [7] is 1.56 µM. In addition, the “MB9798 MITC95 P. aeruginosa uM Efflux WT” value in series [8] was 0.78 µM. Further, in series [8], the Efflux ratio worked out at 2.00. In [9], the “MB9799 MITC95 P. aeruginosa uM Efflux Mutant” value was 0.39 µM.

Regarding `CC1CC(CN)CCN1c1ccc(S(=O)(=O)NC[C@H](O)CN)c(S(N)(=O)=O)c1-c1nn[nH]n1` (stereo partly drawn) [Example 4, N1-((R)-3-amino-2-hydroxypropyl)-4-(4-(aminomethyl)-2-methylpiperidin-1-yl)-3-(2H-tetrazol-5-yl)benzene-1,2-disulfonamide], the IC50 turned out to be 2.17 nM in series [1], 9.4 nM in series [2], 0.18 nM in series [3] and 2.4 nM in [4] (setting [10]). Moreover, the “CLB30016 E. coli MITC95 NDM” value in series [5] worked out at 3.13 µM. Further, the “IHMA599644 K. pneumoniae MITC95 VIM” value in series [6] was 3.13 µM. Also, the “CL5741 S. marcescens MITC95 IMP” value in series [7] turned out to be 1.56 µM. Moreover, in series [8], the “MB9798 MITC95 P. aeruginosa uM Efflux WT” value came out at 1.56 µM. In addition, the Efflux ratio in [8] is 2.00. Moreover, the “MB9799 MITC95 P. aeruginosa uM Efflux Mutant” value in series [9] was determined as 0.78 µM.
